Target: T1, rat P2X4 rT186A mutant (Rattus norvegicus, UniProt P51577, T186A)
T1 construct: rat P2X4 (NP_113782.1; WT and mutants) were transcribed from pGEMHE plasmids; expressed in transfected cells; host or cells: Xenopus laevis oocytes injected with cRNA from pGEMHE
T1 sequence (P51577 1-388 T186A): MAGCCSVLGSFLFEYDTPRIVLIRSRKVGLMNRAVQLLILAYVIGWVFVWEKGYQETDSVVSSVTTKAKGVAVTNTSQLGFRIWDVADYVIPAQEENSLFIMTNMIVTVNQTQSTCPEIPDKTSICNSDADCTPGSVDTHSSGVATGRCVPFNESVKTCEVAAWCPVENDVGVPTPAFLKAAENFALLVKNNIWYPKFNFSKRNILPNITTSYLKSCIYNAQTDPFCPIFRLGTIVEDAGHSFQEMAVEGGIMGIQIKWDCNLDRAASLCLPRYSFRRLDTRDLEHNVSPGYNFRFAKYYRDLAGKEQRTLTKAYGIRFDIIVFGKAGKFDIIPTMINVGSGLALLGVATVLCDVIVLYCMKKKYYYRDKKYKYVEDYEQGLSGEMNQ
Assay: Two-Electrode Voltage Clamp recording, rat P2X4 T186A mutant in Xenopus oocytes
Assay type: cell-based
Details: 3 mM ATP, 3 mM CTP (Fig. S3)
Description: To further investigate the functional roles of the residues involved in the base recognition, T189 and R143, we performed an electrophysiological analysis with the rat P2X4, since its electrophysiological properties have been well established. We first assessed the functional role of T189 in zfP2X4 and introduced mutations at the equivalent residue of the rat P2X4 to create three mutants (^rT186A, ^rT186V and ^rT186S; the superscript “r” means rat P2X4). […] Therefore, we examined the ^rWT and the ^rT186S mutant.
The cRNAs encoding zebrafish P2X4 (NP_705939; WT) and rat P2X4 (NP_113782.1; WT and mutants) were transcribed from pGEMHE plasmids, using a mMessage mMachine® T7 ULTRA kit (Ambion, Huntingdon, Cambridgeshire, UK). Xenopus laevis oocytes were prepared, and RNA (100 ng for zebrafish P2X4, and 20 ng for rat P2X4) was injected into the oocytes. The oocytes were incubated at 18 °C in Barth’s solution, containing 88 mM NaCl, 1 mM KCl, 2.4 mM NaHCO3, 10 mM HEPES, 0.33 mM Ca(NO3)2, 0.41 mM CaCl2, and 0.82 mM MgSO4, pH 7.4, supplemented with 50 μg/ml gentamicin, and were used for recording after 2–3 days. […] Oocytes were held at −70 mV with a bath-clamp amplifier (OC-725C, Warner Co., USA), and macroscopic currents were recorded and analyzed using the pClamp 10 software (Molecular Devices, USA)[33][34]. We measured n = 4 for zebrafish P2X4 data and n = 7–9 for rat P2X4 data. […]

Structure (SMILES): Nc1ccn([C@@H]2O[C@H](COP(=O)(O)OP(=O)(O)OP(=O)(O)O)[C@@H](O)[C@H]2O)c(=O)n1 [CTP]
- nucleotide-evoked currents: no ATP- and CTP-evoked currents were detected

Structure (SMILES): Nc1ncnc2c1ncn2[C@@H]1O[C@H](COP(=O)(O)OP(=O)(O)OP(=O)(O)O)[C@@H](O)[C@H]1O [ATP, Adenosine 5-triphosphate]
- nucleotide-evoked currents: no ATP- and CTP-evoked currents were detected

From PMC5362899, “Structural insights into the nucleotide base specificity of P2X receptors” (Scientific Reports, 2017)
